Marks after values point to notes of the source that are not given here.
Tests used:
[1] = system: β-glucuronidase activity, duodenum lumen contents; assay: β-glucuronidase cleavage in duodenum lumen contents, free 1,25-D3 by RIA; type: in vitro ADME, rats; conditions: 2100 pg added
Description: (§1) The proximal 25 cm of duodenum/jejunum, the caudal 12 cm of ileum, and the cranial 12 cm of colon were removed. The contents from the lumen of each section were flushed with 3 ml water, collected, and pooled. Three-ml aliquots of intestinal contents were placed into tubes. To the tubes, either 2100 pg (3.53 pmoles) β-gluc-1,25-D3 was added and incubated at 37° C. for 0, 1, 3, or 6 hrs, or 150 pg (0.36 pmoles) of 1,25-D3 was added and incubated for 0 or 6 hrs. […] Acetonitrile (3 ml) was added to each tube after incubation to end all enzymatic activity, after which the 1,25-D3 was extracted. Tritiated 1,25-D3 was added to each tube to assess extraction efficiency. The preparations were cleaned by HPLC, and the samples were analyzed for 1,25-D3 content by RIA (Heartland Assays, Ames, Iowa) (Hollis et al., J. Steroid Biochem. Mol. Biol. 2007 103(3-5):473-6).

4T1 tumor cells = assay: 4T1 mammary tumor growth in BALB/c mice; type: in vivo; conditions: 280 ng/day s.c. daily, eight days
Description: 4T1 tumor cells, originally isolated from a BALB/cfC3H mouse mammary gland, were obtained from American Tissue Culture Collection (Manassas, Va.). The tumor growth and metastatic spread of 4T1 cells in BALB/c mice very closely mimic human breast cancer. This syngeneic tumor graft is an animal model for stage 1V human breast cancer (Pulaski et al. Cancer Res. 1998, 58:1486-1493). The cells were grown in RPMI-1640 media supplemented with 10% fetal bovine serum. When cell growth reached about 70% confluency, the cells were lifted from the flasks with standard removing medium and rinsed with 0.25% trypsin, 0.53-mM EDTA solution (trypsin-EDTA solution). This solution was removed and an additional 1 to 2 ml of trypsin-EDTA solution was added. The flask was allowed to sit at 37.0° C. until the cells detached. Fresh culture medium was added, and the cells were aspirated for enumeration using a hemocytometer. RPMI-1640 and Matrigel (BD Biosciences, Bedford, Mass.) solutions were prepared and maintained at 4° C. to keep the Matrigel liquid. […] Sixteen days after implantation of the cells, tumors approximately 0.5-0.7 cm in diameter (as measured with calipers) formed under the skin of many of the mice. […]

[2] = Hypercalcemic effect: plasma calcium in rats under continuous subcutaneous infusion; type: in vivo; conditions: for Plasma Calcium Mean ± SD: 12th day, in mg/dL (unit assumed); for Significantly greater than control? Duncan's Multiple Range Test: plasma calcium
Description: The pumps were filled aseptically with the appropriate dose of drug dissolved in propylene glycol. The pumps were surgically implanted under the skin on the dorsal neck and shoulder area aseptically. On the 12th day of infusion, rats were deeply anesthetized (isofluorane inhalation) and blood was collected by cardiac puncture for plasma calcium determination. The plasma calcium levels were determined by standard methods.

LNCaP cells = assay: LNCaP cell proliferation (CELLTITER BLUE); type: cell-based, human; conditions: six days, control = 100
Description: LNCaP cells (ATCC # CRL-1740) are malignant prostate cancer cells originally obtained from a lymph node of a person whose prostatic cancer had metastasized to the lymph node. LNCaP cells were grown in tissue culture using RPMI-1640 media with 10% fetal bovine serum. Wells of two 48-well tissue culture plates were seeded with 5000 LNCaP cells/well. […] Half the media was replaced with fresh media with treatments on the third day of the treatment period. By day 6 of treatment, wells of control untreated cells were approximately 60% confluent. The live cell numbers in each well at the end of treatment were assessed using the “CELLTITER BLUE”-brand assay kit (Promega Corp., Madison, Wis.). The assay is based on the ability of living cells to convert a redox dye (resazurin) into a fluorescent end product (resorufin).

[3] = Plasma calcium in the DSS mouse model of IBD; type: in vivo; conditions: DSS mice
Description: In this example, β-gluc-1,25-D3 compounds, alone or in combination with 25-β-glucuronide-25-hydroxyvitamin D3 compounds (hereinafter β-gluc-25-D3) were incorporated into the diet of mice and compared to equimolar 1,25-D3 with respect to therapeutic effects on IBD and induction of calcemia. A standard mouse model of IBD comprising administering dextran sodium sulfate (DSS) to induce inflammation of the lower colon was used to study these effects. Vitamin D treatments were first initiated for 4 days. After 4 days, mice were fed DSS-water for 7 days, allowed one day to recover, and sacrificed. Colon length, plasma calcium, fecal blood score, and body weight were assayed. Colon length is a standard marker of intestinal inflammation in the literature, with shortened colon length being an indicator of inflammation. A 1-cm section of the mid-colon was removed, fixed in formalin, and stained with hematoxylin & eosin for microscopic histopathologic evaluation by a veterinary pathologist blinded to the treatments. Each tissue section received a score from 0 to 4 reflecting absence of lesion to severe, extensive lesion for each of three criteria: (1) the degree of erosion/ulceration of colon mucosa; (2) the degree of infiltration of the tissues by inflammatory cells; and (3) the degree of submucosal edema. The sum of the score of each of these criteria constitutes the histopathological score for the tissue with a zero score representing normal tissue based on all criteria, and the worst possible outcome being a score of 12.

[4] = system: β-glucuronidase activity, ileum lumen contents; assay: β-glucuronidase cleavage in ileum lumen contents, free 1,25-D3 by RIA; type: in vitro ADME, rats; conditions: 2100 pg added
Description: as §1

## C=C1/C(=C\C=C2/CCC[C@]3(C)[C@@H]([C@H](C)CCCC(C)(C)O[C@@H]4O[C@H](C(=O)O)[C@@H](O)[C@H](O)[C@H]4O)CC[C@@H]23)C[C@@H](O)C[C@@H]1O [β-gluc-1,25-D3, 25-β-glucuronide-1,25-dihydroxyvitamin D3]
[1]; 0 hrs incubation
  Measured Free 1,25-dihydroxy vitamin D: 29 pg
[1]; 1 hr incubation
  Measured Free 1,25-dihydroxy vitamin D: 38 pg
[1]; 3 hrs incubation
  Measured Free 1,25-dihydroxy vitamin D: 63 pg
[1]; 6 hrs incubation
  Measured Free 1,25-dihydroxy vitamin D: 105 pg
4T1 tumor cells; BALB/c mice
  tumor weight mean±SEM: 2.01 ± 0.36 g
4T1 tumor cells; P=0.034
  effect on the growth of 4T1 tumor cells: significant anti-proliferative effect
[2]; 14 ng/day continuous s.c. infusion
  Plasma Calcium Mean ± SD: 10.63 ± 0.20
[2]; 70 ng/day
  increase in plasma calcium: no increase in plasma calcium
[2]; 70 ng/day continuous s.c. infusion
  Plasma Calcium Mean ± SD: 10.71 ± 0.15
[2]; 250 ng/day continuous s.c. infusion
  Plasma Calcium Mean ± SD: 11.02 ± 0.49
[2]; 350 ng/day continuous s.c. infusion
  Plasma Calcium Mean ± SD: 11.00 ± 0.25
[2]; 500 ng/day
  symptoms of hypercalcemia (feed intake): no evidence of a reduction in feed intake or other symptoms
  Significantly greater than control? Duncan's Multiple Range Test: Yes
[2]; 500 ng/day continuous s.c. infusion
  Plasma Calcium Mean ± SD: 11.33 ± 0.38
[2]; continuous s.c. infusion
  lowest dose inducing a statistically significant increase in plasma calcium levels: 250 ng/day
[2]; 250 ng/day
  Significantly greater than control? Duncan's Multiple Range Test: Yes
[2]; 350 ng/day
  Significantly greater than control? Duncan's Multiple Range Test: Yes
[2]; versus 1,25-D3
  hypercalcemic effect, fold less than the native hormone: at least 4 fold
LNCaP cells; 20 nM
  Proliferation index (Mean ± SEM): 95.4 ± 2.4
LNCaP cells; 100 nM
  Proliferation index (Mean ± SEM): 73.1 ± 9.5
[3]; 14 ng/day in diet
  Plasma Calcium: 10.25 ± 0.33 mg/dL
[3]; 70 ng/day in diet
  Plasma Calcium: 10.12 ± 0.30 mg/dL
[3]; 350 ng/day in diet
  Plasma Calcium: 10.72 ± 0.33^d mg/dl
[3]; alone at 70 ng/day
  hypercalcemia: not accompanied by a physiologically significant increase in hypercalcemia
[4]; 0 hrs incubation
  Measured Free 1,25-dihydroxy vitamin D: 39 pg
[4]; 1 hr incubation
  Measured Free 1,25-dihydroxy vitamin D: 1323 pg
[4]; 3 hrs incubation
  Measured Free 1,25-dihydroxy vitamin D: 1127 pg
[4]; 6 hrs incubation
  Measured Free 1,25-dihydroxy vitamin D: 1342 pg

From patent publication US20110152207A1, “USE OF VITAMIN D GLYCOSIDES AND SULFATES FOR TREATMENT OF DISEASE” (priority 2009, published 2011)
